{
  "source": "patent US20220396794A1",
  "about": "“APTAMERS AGAINST TRANSFERRIN RECEPTOR (TfR)” (APTERNA LIMITED, priority 2019, published 2022)",
  "key": {"[1]": {"test_system": "PANC-Luc tumors", "experiment": "Liver-metastatic pancreatic cancer mouse model, combinational treatment with gemcitabine", "assay_type": "in vivo, NOD/SCID mice", "settings": "conjugate 1 nmol 3 times/week I.P. combined with gemcitabine 50 mg/kg 2 times/week I.V., compared with PBS", "procedure": "Intrahepatic pancreatic cancer liver-metastatic mouse model. To create an animal model harboring traceable tumors, a firefly luciferase fragment was inserted into the pLKO.1-AS3 backbone encoding the neo gene (National RNAi Core, Academia Sinica, Taiwan). One day before transduction, 293T cells were plated onto a 6-well plate. On the day of transduction, the medium was replaced with DMEM containing serial dilutions of the transfer plasmids and incubated for 5 h, then the medium was replaced. After two days, the culture medium containing recombinant lentiviral particles was obtained. PANC-1 cells were incubated with recombinant lentiviral particles for 24 h. […] Luciferase expression was assessed using the Luciferase Assay System. […] For the combinational treatment with gemcitabine, tumors were allowed to grow for 2 weeks after inoculation until they could be detected using an IVIS system, then mice were randomly divided into five groups of 10 animals/group. […] Tumor growth was monitored by evaluating bioluminescence using an IVIS 200 in vivo imaging platform (Caliper Life Sciences, Alameda, Calif.) and measuring the difference from before the first injection and one day after the last injection. […] The mice were imaged using the IVIS 200 and bioluminescent signals were analyzed using Living Image Software (Caliper Life Sciences, Alameda, Calif.). […]"}, "[2]": {"test_system": "albumin mRNA", "experiment": "Analysis of gene expression in vivo in C57BL/6J mice, albumin", "settings": "B6 mice, 3 doses of 1 nmol via tail vein, tissue harvesting on day 8", "procedure": "(§1) Relative gene expression analysis by qPCR in vitro. For analyzing gene activation and protein expression, PANC-1 cells were seeded in duplicate into 24-well plates at a density of 1×10^5 cells per well. tTR14 or control aptamer (IRRE) conjugated to C/EBPα-saRNAs were added directly to the cells, at a final concentration of 100 nM or 200 nM. The treatment was repeated 24 h later and cells were harvested at final incubation times of 48 or 72 h. Total RNA was extracted for reverse transcription using an RNeasy kit (Qiagen). Target cDNA amplification and real-time PCR was performed using a Bio-rad kit (SsoAdvanced™ Universal SYBR® Green Supermix). For normalization, the reference gene 18S was used. To determine gene expression in vivo samples, total RNA was extracted for reverse transcription (QuantiFast® Reverse transcription, Qiagen) and target cDNA was amplified using real-time PCR (QuantiFast® SYBR®Green Master mix). The cDNA probes used were purchased as prevalidated QuantiTect® SYBR probes from Qiagen. Real-time PCR was performed with validated QuantiTect® SYBR probes (Qiagen) or validated FAM probes (Applied Biosystems).\n(§2) Analysis of gene expression in vivo. Female or male at 6 week C57BL/6J mice were purchased from the Jackson laboratory for three conjugates; TC, TCT, and TCUT. […]"}, "[3]": {"test_system": "PANC-1 cells", "experiment": "MTS assay, inhibition of cell proliferation", "assay_type": "cell-based, human", "procedure": "MTS assay. […] Cells were treated with tTR14-C/EBPα and […] at 100 nM or 200 nM twice at 24-h intervals."}, "[4]": {"test_system": "C/EBPα mRNA", "experiment": "Relative gene expression by qPCR in vitro, C/EBPα", "assay_type": "cell-based, human", "procedure": "as §1"}, "[5]": {"test_system": "p21 mRNA", "experiment": "Relative gene expression by qPCR in vitro, p21", "assay_type": "cell-based, human", "procedure": "as §1"}, "[6]": {"test_system": "C/EBPα mRNA", "experiment": "Analysis of gene expression in vivo in C57BL/6J mice, C/EBPα", "settings": "B6 mice, 3 doses of 1 nmol via tail vein", "procedure": "as §1, §2"}, "[7]": {"settings": "PANC-1, 100 nM, 48 or 72 h (FIG. 7)"}, "[8]": {"settings": "PANC-1, 72 h, 100 nM, compared to IRRE control group (FIG. 3)"}},
  "data": [
    {"substance": "TCUT: TR14 ST1-3 with CEBPA sense, a 10-uracil spacer and albumin affinity tag (UUUAUUCACAUUUUUGAAUUGAGCGGUCAUUGUCACUGGUCUUUUUUUUUUUUN; listed as RNA, chemistry not given here)", "values": [
      {"measurement": "tumor burden by measuring photon increase", "setting": "[1]", "result": "significant reduction of tumor burden"},
      {"measurement": "albumin mRNA levels in liver", "setting": "[2]", "result": "none increased"},
      {"measurement": "cell proliferation by MTS assay", "setting": "[3]; [7]", "result": "inhibited the cancer cell proliferation"},
      {"measurement": "cell proliferation by MTS assay", "setting": "[3]; PANC-1, 72 h, compared to IRRE control group (FIG. 3)", "result": "inhibition of tumor cell proliferation"},
      {"measurement": "upregulation of C/EBPα", "setting": "[4]; [7]", "result": "upregulation"},
      {"measurement": "mRNA expression of C/EBPα", "setting": "[4]; [8]", "result": "upregulation"},
      {"measurement": "upregulation of p21", "setting": "[5]; [7]", "result": "upregulation"},
      {"measurement": "mRNA expression of p21", "setting": "[5]; [8]", "result": "upregulation"},
      {"measurement": "mRNA levels of C/EBPα in brain tissue", "setting": "[6]; tissue harvesting on day 8", "result": "no upregulation"},
      {"measurement": "mRNA levels of C/EBPα in liver", "setting": "[6]; tissue harvesting on day 8, compared to untreated group", "result": "increased"}
    ]}
  ]
}
